Experimental data reported in patent US12667563B2, “Prophylactic or therapeutic agent for porphyria” (TANABE PHARMA CORPORATION, priority 2020, dated 2026).

Experiments:
Assay type in all cases: in vivo, human
[1] = system: patients with erythropoietic protoporphyria or X-linked porphyria; test: Time to occurrence of phototoxicity-related symptom in randomized double-blind clinical trial; settings: for Least squares mean of the length of time (in minutes) before the first occurrence of a symptom in a day: week 16
Method: Compound A was administered to adult male and female patients with erythropoietic protoporphyria or X-linked porphyria for 16 weeks in a randomized double-blind clinical trial. As a primary endpoint for the clinical effect, the time to the first symptom due to exposure to light, including indirect sunlight as well as direct sunlight, during the period from 1 hour after sunrise to 1 hour before sunset was evaluated.
The baseline median of the erythrocyte protoporphyrin IX level was determined by measuring the protoporphyrin IX level in the fraction of erythrocytes in blood.
The median of the melanin density was determined h spectrophotometric measurement for the skin at the following six sites: the forehead, the left cheek, the inner side of the right upper arm, the inner side of the left forearm, the right side of the abdomen, and the left side of the hip.
The test in Example 2 was conducted in the Northern Hemisphere.

[2] = system: patients with erythropoietic protoporphyria or X-linked porphyria; test: Health-related QOL: PGIC (Patient Global Impression of Change) score in clinical trial; settings: 7-point scale, 7 = remarkable improvement (placebo 2.9), P value <0.001
Method: Compound A was administered to adult male and female patients with erythropoietic protoporphyria or X-linked porphyria for 16 weeks in a randomized double-blind clinical trial. As a secondary endpoint for the clinical effect, the PGIC (Patient Global Impression of Change) score, which is a health-related QOL, of each patient at week 16 was recorded by the patients themselves, More specifically, each patient was provided with a questionnaire for scoring the degree of improvement of the overall physical and mental health conditions on a 7-point scale.
The PGIC scores at week 16 in the placebo-administration group, the 100-mg compound A-administration group, and the 300-mg compound A-administration group were 2.9, 6.4, and 6.6, respectively.

[3] = system: patients with erythropoietic protoporphyria or X-linked porphyria; test: Number of pain events recorded in electronic diary by patients during 16-week evaluation period of clinical trial; settings: for reduction of pain events relative to the placebo administration group: 16 weeks; for Incidence rate of pain: N 24, 16-week evaluation period (placebo 7.5)
Method: Compound A was administered to adult male and female patients with erythropoietic protoporphyria or X-linked porphyria for 16 weeks in a randomized double-blind clinical trial. As another endpoint for the clinical effect, the number of pain events during the evaluation period of 16 weeks was recorded in an electronic diary by the patients themselves.
The incidence rates of pain during the evaluation period in the placebo administration group, the 100-mg compound A-administration group, and the 300-mg compound A-administration group were 7.5, 3.3, and 3.5, respectively.

COC[C@H]1CN(C(=O)[C@]2(F)CN(C3CCCC3)C[C@H]2c2ccc(OC)cc2)C[C@@H]1c1ccc(C(F)(F)F)cc1N1CCC(C(=O)O)CC1.O=P(O)(O)O [Compound A, cocrystal containing 1-{2-[(3S,4R)-1-{[(3R,4R)-1-cyclopentyl-3-fluoro-4-(4-methoxyphenyl)pyrrolidin-3-yl]carbonyl}-4-(methoxymethyl)pyrrolidin-3-yl]-5-(trifluoromethyl)phenyl}piperidine-4-carboxylic acid and phosphoric acid]
Least squares mean of the length of time (in minutes) before the first occurrence of a symptom in a day ([1]; 100 mg (N = 15) vs placebo (N = 15), subgroup with initial dosing in fall or winter, P value 0.029): 52.8 min
Least squares mean of the length of time (in minutes) before the first occurrence of a symptom in a day ([1]; 100 mg (N = 18) vs placebo (N = 20), subgroup with initial dosing in spring or summer, P value 0.073): 54.4 min
Least squares mean of the length of time (in minutes) before the first occurrence of a symptom in a day ([1]; 100 mg orally once daily (N = 33) vs placebo (N = 35), P value 0.008): 53.8 min
least squares mean of the time (in minutes) to the first occurrence of the symptom in a day ([1]; 100 mg, patient group with baseline median erythrocyte protoporphyrin IX level not less than 1980.50 mcg/dL, P value 0.020): 69.3 min
least squares mean of the time (in minutes) to the first occurrence of the symptom in a day ([1]; 100 mg, patient group with median melanin density less than 3.0915, P value 0.499): 23.2 min
least squares mean of the time (in minutes) to the first occurrence of the symptom in a day ([1]; 100 mg, patient group with median melanin density not less than 3.0915, P value <0.001): 85.0 min
Least squares mean of the length of time (in minutes) before the first occurrence of a symptom in a day ([1]; 300 mg (N = 16) vs placebo (N = 15), subgroup with initial dosing in fall or winter, P value <0.001): 95.8 min
Least squares mean of the length of time (in minutes) before the first occurrence of a symptom in a day ([1]; 300 mg (N = 18) vs placebo (N = 20), subgroup with initial dosing in spring or summer, P value 0.168): 42.2 min
Least squares mean of the length of time (in minutes) before the first occurrence of a symptom in a day ([1]; 300 mg orally once daily (N = 34) vs placebo (N = 35), P value 0.003): 62.5 min
least squares mean of the time (in minutes) to the first occurrence of the symptom in a day ([1]; 300 mg, patient group with baseline median erythrocyte protoporphyrin IX level not less than 1980.50 mcg/dL, P value 0.003): 82.6 min
least squares mean of the time (in minutes) to the first occurrence of the symptom in a day ([1]; 300 mg, patient group with median melanin density less than 3.0915, P value 0.051): 63.7 min
least squares mean of the time (in minutes) to the first occurrence of the symptom in a day ([1]; 300 mg, patient group with median melanin density not less than 3.0915, P value 0.002): 80.3 min
time to the first occurrence of the symptom in a day ([1]; patient group with baseline median erythrocyte protoporphyrin IX level less than 1980.50 mcg/dL): tended to be prolonged
Least squares mean of the PGIC scores ([2]; 100 mg orally once daily, N 25, week 16): 6.4
Least squares mean of the PGIC scores ([2]; 300 mg orally once daily, N 24, week 16): 6.6
reduction of pain events relative to the placebo administration group ([3]; 100 mg orally once daily): 60%
Incidence rate of pain ([3]; 100 mg orally once daily): 3.3
Incidence rate of pain, ratio to placebo ([3]; 100 mg orally once daily, P value 0.027): 0.4
reduction of pain events relative to the placebo administration group ([3]; 300 mg orally once daily): 50%
Incidence rate of pain ([3]; 300 mg orally once daily): 3.5
Incidence rate of pain, ratio to placebo ([3]; 300 mg orally once daily, P value 0.028): 0.5
